Test results as given in patent US7700644B2, “Isoflavonoid dimers” (Novogen Research Pty Ltd, priority 2005, dated 2010).

Tests used:
MM200 (Melanoma) = test: In vitro cytotoxicity, MTT proliferation assay, MM200; format: cell-based, human; conditions: Homo sapiens
Procedure: (§1) The human pancreatic cancer cell line, HPAC (CRL-2119) was routinely cultured in 1:1 mixture DMEM (Sigma) plus Ham's F12 (Sigma) medium containing HEPES (15 mM), insulin (0.002 mg/ml), transferrin (0.005 mg/ml), hydrocortisone, (40 ng/ml), epidermal growth factor (10 ng/ml). The ovarian cancer cell line CP70 was obtained as a gift from Dr. Gil Mor (Yale University) and cultured in a 1:1 mixture DMEM plus Ham's F12 medium, and SKOV-3 was purchased from ATCC and cultured in McCoy's 5a medium. The breast cancer cell line MDA-MB-468 cultured in Leibovitz's L-15 medium.
(§2) All cultures were supplemented with 10% FCS(CSL, Australia), penicillin (100 U/ml), streptomycin ([…]), L-glutamine (2 mM) and sodium bicarbonate (1.2 g/L), and cultured at 37° C. in a humidified atmosphere of 5% CO2. All remaining cell lines were purchased from ATCC (Maryland, USA) except where noted.
(§3) IC50 values were determined for each cell line. Cells were seeded in 96-well plates at an appropriate cell density as determined from growth kinetics analysis. NFFs were cultured for 5 days and RK-13s for 24 hrs in the absence and presence of the test compounds. Cell proliferation was assessed after the addition of 20 μl of 3-4,5 dimethylthiazol-2,5-diphenyl tetrazolium bromide (MTT, 2.5 mg/ml in PBS, Sigma) for 3-4 hrs at 37° C. according to manufacturer's instructions. IC50 values were calculated from semi-log plots of % of control proliferation on the y-axis against log dose on the x-axis.

SKOV-3 (Ovarian) = test: In vitro cytotoxicity, MTT proliferation assay, SKOV-3; format: cell-based, human; conditions: Homo sapiens, SK-OV-3; Ovarian SKOV-3
Procedure: as §1, §2, §3

CCRF-CEM (Leukemic) = test: In vitro cytotoxicity, MTT proliferation assay, CCRF-CEM; format: cell-based; conditions: Homo sapiens
Procedure: as §1, §2
as §3, with “NFFs were cultured for 5 days and RK-13s for 24 hrs in the absence and presence of the test compounds.” left out

[1] = system: Neonatal foreskin fibroblasts (NFF); test: Normal cell toxicity, MTT proliferation assay, NFF; format: cell-based, human; conditions: Homo sapiens, 120 h; NFF fibroblast, cultured 5 days, MTT
Procedure: (§4) Neonatal foreskin fibroblasts (NFF) were a gift from Dr. Peter Parsons (Queensland Institute of Medical Research). RK-13 (rabbit kidney) cells were obtained from Miller Whalley (Macquarie University). Both cell types were cultured in RPMI supplemented with 10% FCS (CSL, Australia), penicillin (100 U/ml), streptomycin ([…]), L-glutamine (2 mM) and sodium bicarbonate (1.2 g/L), and cultured at 37° C. in a humidified atmosphere of 5% CO2.
as §3
Duplicate cytotoxicity assays against NFF cells were conducted with dehydroequol (DHE), 4,9-dihydroxy-14,15-dimethoxy-12a-(3′,4′-dimethoxyphenyl)-3,10-dimethyl-2,11-dioxa-(1H,12H)-6b,6c,12a,16b-tetrahydronaphtho[1,2-g]chrysene (2) from Example 6.1 and cisplatin.

MCF-7 (Breast) = test: In vitro cytotoxicity, MTT proliferation assay, MCF-7; format: cell-based, human; conditions: Homo sapiens, MCF7; Breast MCF-7
Procedure: as §1, §2, §3

A2780 (Ovarian) = test: In vitro cytotoxicity, MTT proliferation assay, A2780; format: cell-based, human; conditions: Homo sapiens
Procedure: as §1, §2, §3

[2] = system: human pancreatic cancer cell line, HPAC (CRL-2119); test: In vitro cytotoxicity, MTT proliferation assay, CRL-2119; format: cell-based; conditions: Homo sapiens, HPAC; Pancreatic CRL-2119
Procedure: as §1, §2, §3

HCT-15 (Colorectal) = test: In vitro cytotoxicity, MTT proliferation assay, HCT-15; format: cell-based, human; conditions: Homo sapiens; Colorectal HCT-15
Procedure: as §1, §2, §3

HTB-138 (Glioma) = test: In vitro cytotoxicity, MTT proliferation assay, HTB-138; format: cell-based, human; conditions: Homo sapiens; Glioma HTB-138
Procedure: as §1, §2, §3

LNCaP (Prostate) = test: In vitro cytotoxicity, MTT proliferation assay, LNCaP; format: cell-based, human; conditions: Homo sapiens
Procedure: as §1, §2, §3

PC3 (Prostate) = test: In vitro cytotoxicity, MTT proliferation assay, PC3; format: cell-based, human; conditions: Homo sapiens
Procedure: as §1, §2, §3

[3] = Oral pharmacokinetics in mice; format: in vivo, female BALB/c mice; conditions: female, BALB/c, mouse, blood, 50 mg/kg, oral gavage, read-out: Free concentration in blood
Procedure: 4,9-Dihydroxy-14,15-dimethoxy-12a-(3′,4′-dimethoxyphenyl)-3,10-dimethyl-2,11-dioxa-(1H,12H)-6b,6c,12a,16b-tetrahydronaphtho[1,2-g]chrysene (2) from Example 6.1 was prepared as homogenous suspensions in 1% CMC (m:v, water). The Cpd. 2 formulation was delivered orally by gavage to female BALB/c mice at a dosage of 50 mg/kg. Three animals were allocated to each time point (15 min, 30 min, 1 hr, 4 hr and 24 hr). At each respective time point, animals were euthanased by cervical dislocation and blood collected. Free Cpd.

MM96L (Melanoma) = test: In vitro cytotoxicity, MTT proliferation assay, MM96L; format: cell-based, human; conditions: Homo sapiens
Procedure: as §1, §2, §3

[4] = system: RK-13 (rabbit kidney) cells; test: Normal cell toxicity, MTT proliferation assay, rabbit kidney cells; format: cell-based; conditions: Oryctolagus cuniculus, 24 hrs
Procedure: as §4, §3

DU145 (Prostate) = test: In vitro cytotoxicity, MTT proliferation assay, DU145; format: cell-based, human; conditions: Homo sapiens, DU-145
Procedure: as §1, §2, §3

NCI-H23 (Lung) = test: In vitro cytotoxicity, MTT proliferation assay, NCI-H23; format: cell-based; conditions: Homo sapiens
Procedure: as §1, §2
as §3, with “NFFs were cultured for 5 days and RK-13s for 24 hrs in the absence and presence of the test compounds.” left out

[5] = system: breast cancer cell line MDA-MB-468; test: In vitro cytotoxicity, MTT proliferation assay, MDA-MB-468; format: cell-based, human; conditions: Homo sapiens; Breast MDA-MB-468
Procedure: as §1, §2, §3

[6] = system: ovarian cancer cell line CP70; test: In vitro cytotoxicity, MTT proliferation assay, CP70; format: cell-based, human; conditions: Homo sapiens
Procedure: as §1, §2, §3

HT-29 (Colorectal) = test: In vitro cytotoxicity, MTT proliferation assay, HT-29; format: cell-based, human; conditions: Homo sapiens; Colorectal HT-29
Procedure: as §1, §2, §3

RPMI-8226 (Leukemic) = test: In vitro cytotoxicity, MTT proliferation assay, RPMI-8226; format: cell-based; conditions: Homo sapiens; Leukemic RPMI-8226
Procedure: as §1, §2
as §3, with “NFFs were cultured for 5 days and RK-13s for 24 hrs in the absence and presence of the test compounds.” left out

NCI-H460 (Lung) = test: In vitro cytotoxicity, MTT proliferation assay, NCI-H460; format: cell-based, human; conditions: Homo sapiens
Procedure: as §1, §2, §3

`Oc1ccc(C2=Cc3ccc(O)cc3OC2)cc1` [DHE, 3-(4-hydroxyphenyl)chrom-3-en-7-ol] showed an IC50 (MM200 (Melanoma)) of 4.8 µM, an IC50 (SKOV-3 (Ovarian)) of 21.8 ± 4.65 µM and an IC50 (CCRF-CEM (Leukemic)) of 1.7 ± 0.68 µM. It also gave an IC50 [1] of over 150 µM, an IC50 (MCF-7 (Breast)) of 21.5 ± 13.2 µM and an IC50 (A2780 (Ovarian)) of 1.7 ± 0.61 µM. It also gave an IC50 [2] of 56.6 ± 16.8 µM, an IC50 (HCT-15 (Colorectal)) of 24.4 ± 12.6 µM and an IC50 (HTB-138 (Glioma)) of 7.35 ± 0.89 µM. The IC50 (LNCaP (Prostate)) was 4.8 ± 3.8 µM, the IC50 (PC3 (Prostate)) was 9.09 ± 8.12 µM and the concentration at 15 min ([3]; Time 0.25 (15 min)) was 3300 nM. For the same compound, the concentration at 30 min ([3]; Time 0.5 (30 min)) was 2900 nM, the concentration at 1 h ([3]; Time 1 (1 hr)) was 1500 nM and the concentration at 4 h ([3]; Time 4 (4 hr)) was 1300 nM. It also gave a concentration at 24 h ([3]; Time 24 (24 hr)) of 150 nM, an IC50 (MM96L (Melanoma)) of 4.7 µM and an IC50 [4] of over 150 µM. For the same compound, the IC50 (DU145 (Prostate)) was 5.95 ± 1.5 µM, the IC50 (NCI-H23 (Lung)) was 8.75 ± 7.2 µM and the IC50 [5] was 7.9 ± 3.5 µM. For the same compound, the IC50 [6] was 1.69 ± 0.62 µM, the IC50 (HT-29 (Colorectal)) was 50.5 ± 21.9 µM and the IC50 (RPMI-8226 (Leukemic)) was 3.72 ± 0.08 µM. The IC50 (NCI-H460 (Lung)) was 10.6 ± 3.8 µM.
